Reference: US7402606B2, “Derivatives of 1-(oxoaminoacetyl) pentylcarbamate as cathepsin K inhibitors for the treatment of bone loss” (SmithKline Beecham Corporation, priority 2002, dated 2008)

What follows are molecules tested against T1, human cathepsin K (Homo sapiens, UniProt P43235) (assay: Cathepsin K inhibition assay, human recombinant enzyme, fluorogenic substrate Cbz-Phe-Arg-AMC). Conditions: Table 1, human cathepsin K; read-out: h Cat K IC50.
T1 construct: The proform of cathepsin K was converted to mature cathepsin K by brief exposure to pH 4; made in house; host or cells: baculovirus; Trichoplusia ni High Five cells (virus raised in Sf-9)
T1 sequence (P43235 115-329): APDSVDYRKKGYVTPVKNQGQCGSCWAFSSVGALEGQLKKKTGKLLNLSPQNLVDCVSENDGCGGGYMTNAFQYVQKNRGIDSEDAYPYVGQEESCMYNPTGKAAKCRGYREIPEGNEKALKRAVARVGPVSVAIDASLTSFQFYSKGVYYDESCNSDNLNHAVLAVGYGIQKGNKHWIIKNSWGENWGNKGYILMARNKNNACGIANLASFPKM
Type: biochemical
In short: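 Recombinant human cathepsin K (baculovirus/insect-cell proform, activated at pH 4 with 5 mM L-cysteine) assayed with 10 μM Cbz-Phe-Arg-AMC, 10% DMSO, 30 °C.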

| Structure (SMILES) | IC50 |
| --- | --- |
| CCCC[C@H](NC(=O)O[C@@H]1CN(C(=O)c2cc3ccccc3s2)CC1(C)C)C(=O)C(=O)N[C@H](C)c1ccccc1 [Example 17, (3S)-1-(1-Benzothien-2-ylcarbonyl)-4,4-dimethylpyrrolidinyl (1S)-1-(oxo{[(1R)-1-phenylethyl]amino}acetyl)pentylcarbamate] | 1 to 10 nM |
| CCCC[C@H](NC(=O)O[C@@H]1CN(C(=O)c2ccc(-c3ccccc3)cc2)CC1(C)C)C(=O)C(=O)N[C@H](C)c1ccccc1 [Example 20] | 1 to 10 nM |
| CCCC[C@H](NC(=O)OC1C(=O)N(Cc2ccccc2)CC1(C)C)C(=O)C(=O)N[C@H](C)c1ccccc1 (stereo partly drawn) [Example 4, 1-Benzyl-4,4-dimethyl-2-oxo-3-pyrrolidinyl (1S)-1-(oxo{[(1R)-1-phenylethyl]amino}acetyl)pentylcarbamate] | 10 to 100 nM |
| CCCC[C@H](NC(=O)O[C@@H]1CN(C(=O)OCc2cn(-c3ccccc3)nn2)CC1(C)C)C(=O)C(=O)N[C@H](C)c1ccccc1 [Example 46, (1-Phenyl-1H-1,2,3-triazol-4-yl)methyl (4S)-3,3-dimethyl-4-[({[(1S)-1-(oxo{[(1R)-1-phenylethyl]amino}acetyl)pentyl]amino}carbonyl)oxy]-1-pyrrolidinecarboxylate] | 1 to 10 nM |
| CCCC[C@H](NC(=O)O[C@@H]1CN(C(=O)NCc2ccccc2)CC1(C)C)C(=O)C(=O)N[C@H](C)c1ccccc1 [Example 64] | 1 to 10 nM |
| CCCC[C@H](NC(=O)O[C@@H]1CN(C(=O)Oc2ccc(-c3csnn3)cc2)CC1(C)C)C(=O)C(=O)N[C@H](C)c1ccccc1 [Example 61, 4-(1,2,3-Thiadiazol-4-yl)phenyl (4S)-3,3-dimethyl-4-[({[(1S)-1-(oxo{[(1R)-1-phenylethyl]amino}acetyl)pentyl]amino}carbonyl)oxy]-1-pyrrolidinecarboxylate] | 10 to 100 nM |
| CCCC[C@H](NC(=O)O[C@@H]1CN(C(=O)c2n[nH]c3ccccc23)CC1(C)C)C(=O)C(=O)N[C@H](C)c1ccccc1 [Example 36, (3S)-1-(1H-Indazol-3-ylcarbonyl)-4,4-dimethylpyrrolidinyl (1S)-1-(oxo {[(1R)-1-phenylethyl]amino}acetyl)pentylcarbamate] | 1 to 10 nM |
| CCCC[C@H](NC(=O)O[C@@H]1CN(S(=O)(=O)c2ccc3c(c2)OCCO3)CC1(C)C)C(=O)C(=O)N[C@H](C)c1ccccc1 [Example 80, (3S)-1-(2,3-Dihydro-1,4-benzodioxin-6-ylsulfonyl)-4,4-dimethylpyrrolidinyl (1S)-1-(oxo{[(1R)-1-phenylethyl]amino}acetyl)pentylcarbamate] | 10 to 100 nM |
| CCCC[C@H](NC(=O)O[C@@H]1CN(C(=O)Cc2csc(-c3cnccn3)n2)CC1(C)C)C(=O)C(=O)N[C@H](C)c1ccccc1 [Example 38, (3S)-4,4-Dimethyl-1-{[2-(2-pyrazinyl)-1,3-thiazol-4-yl]acetyl-}pyrrolidinyl (1S)-1-(oxo{[(1R)-1-phenylethyl]amino}acetyl)pentylcarbamate] | 10 to 100 nM |
| CCCC[C@H](NC(=O)O[C@@H]1CN(C(=O)OCC2CCOC2)CC1(C)C)C(=O)C(=O)N[C@H](C)c1ccccc1 (stereo partly drawn) [Example 49, Tetrahydro-3-furanylmethyl (4S)-3,3-dimethyl-4-[({[(1S)-1-(oxo {[(1R)-1-phenylethyl]amino}acetyl)pentyl]amino}carbonyl)oxy]-1-pyrrolidinecarboxylate] | 10 to 100 nM |
| CCCC[C@H](NC(=O)O[C@@H]1CN(S(=O)(=O)Cc2ccccc2)CC1(C)C)C(=O)C(=O)N[C@H](C)c1ccccc1 [Example 78, (3S)-1-(Benzylsulfonyl)-4,4-dimethylpyrrolidinyl (1S)-1-(oxo{[(1R)-1-phenylethyl]amino}acetyl)pentylcarbamate] | 10 to 100 nM |
| CCCC[C@H](NC(=O)O[C@@H]1CN(C(=O)OCc2ccccc2)CC1(C)C)C(=O)C(=O)N[C@H](C)c1ccccc1 [Example 44, Benzyl (4S)-3,3-dimethyl-4-[({[(1S)-1-(oxo{[(1R)-1-phenylethyl]amino}acetyl)pentyl]amino}carbonyl)oxy]-1-pyrrolidinecarboxylate] | 10 to 100 nM |
| CCCC[C@H](NC(=O)O[C@@H]1CN(C(C)=O)CC1(C)C)C(=O)C(=O)N[C@H](C)c1ccccc1 [Example 10, (3S)-1-Acetyl-4,4-dimethylpyrrolidinyl (1S)-1-(oxo{[(1R)-1-phenylethyl]amino}acetyl)pentylcarbamate] | 10 to 100 nM |
| CCCC[C@H](NC(=O)O[C@@H]1CN(C(=O)OCC2CCCO2)CC1(C)C)C(=O)C(=O)N[C@H](C)c1ccccc1 (stereo partly drawn) [Example 41, Tetrahydro-2-furanylmethyl (4S)-3,3-dimethyl-4-[({[(1S)-1-(oxo{[(1R)-1-phenylethyl]amino}acetyl)pentyl]amino}carbonyl)oxy]-1-pyrrolidinecarboxylate] | 1 to 10 nM |

Other lines, results leading:

| IC50 | Structure (SMILES) |
| --- | --- |
| 1 to 10 nM | CCCC[C@H](NC(=O)O[C@@H]1CN(C(=O)c2cc(C(C)(C)C)nn2C)CC1(C)C)C(=O)C(=O)N[C@H](C)c1ccccc1 [Example 14, (3S)-1-[(3-tert-Butyl-1-methyl-1H-pyrazol-5-yl)carbonyl]-4,4-dimethylpyrrolidinyl (1S)-1-(oxo{[(1R)-1-phenylethyl]amino}acetyl)pentylcarbamate] |
| 10 to 100 nM | CCCC[C@H](NC(=O)O[C@@H]1CN(C(=O)c2cccnc2)CC1(C)C)C(=O)C(=O)N[C@H](C)c1ccccc1 [Example 66, (3S)-4,4-Dimethyl-1-(3-pyridinylcarbonyl)pyrrolidinyl (1S)-1-(oxo{[(1R)-1-phenylethyl]amino}acetyl)pentylcarbamate] |
| 1 to 10 nM | CCCC[C@H](NC(=O)O[C@@H]1CN(C(=O)c2ccc3c(c2)OCO3)CC1(C)C)C(=O)C(=O)N[C@H](C)c1ccccc1 [Example 16, (3S)-1-(1,3-Benzodioxol-5-ylcarbonyl)-4,4-dimethylpyrrolidinyl (1S)-1-(oxo{[(1R)-1-phenylethyl]amino}acetyl)pentylcarbamate] |
| 10 to 100 nM | CCCC[C@H](NC(=O)OC1C(=O)N(C)CC1(C)C)C(=O)C(=O)N[C@H](C)c1ccccc1 (stereo partly drawn) [Example 7, 1,4,4-trimethyl-2-oxo-3-pyrrolidinyl (1S)-1-(oxo{[(1R)-1-phenylethyl]amino}acetyl)pentylcarbamate] |
| 10 to 100 nM | CCCC[C@H](NC(=O)O[C@@H]1CN(C(=O)OCc2cccc(-c3ccccc3)c2C)CC1(C)C)C(=O)C(=O)N[C@H](C)c1ccccc1 [Example 54, (2-Methyl[1,1′-biphenyl]-3-yl)methyl (4S)-3,3-dimethyl-4-[({[(1S)-1-(oxo{[(1R)-1-phenylethyl]amino}acetyl)pentyl]amino}carbonyl)oxy]-1-pyrrolidinecarboxylate] |
| 1 to 10 nM | CCCC[C@H](NC(=O)O[C@@H]1CN(C(=O)Nc2cc(F)ccc2C)CC1(C)C)C(=O)C(=O)N[C@H](C)c1ccccc1 [Example 72, (3S)-1-[(5-Fluoro-2-methylanilino)carbonyl]-4,4-dimethylpyrrolidinyl (1S)-1-(oxo{[(1R)-1-phenylethyl]amino}acetyl)pentylcarbamate] |
